Laboratory results reported in ChEMBL document CHEMBL1133903, “Thrombin receptor (PAR-1) antagonists. Solid-phase synthesis of indole-based peptide mimetics by anchoring to a secondary amide” (Bioorg Med Chem Lett, 2001).

Columns and labels:
[1] = organism: Homo sapiens; experiment: In vitro inhibition of human platelet aggregation induced by thromboxane mimetic U-46,619 at 0.3 uM.; assay type: functional, organism-based
[2] = organism: Homo sapiens; experiment: In vitro inhibition of human platelet aggregation induced by collagen (at a concentration of 3 ug/mL); IA means Inactive at 50 uM; assay type: functional
[3] = biological target: T1, Proteinase-activated receptor 1 (Homo sapiens, UniProt P25116); experiment: In vitro displacement of [3H]S-(p-F-Phe)-homoarginine-K Y-NH2 (at a concentration of 10 nM) from thrombin receptor (PAR-1) on the membranes of CHRF-288-11 cells
T1 sequence (P25116 whole entry): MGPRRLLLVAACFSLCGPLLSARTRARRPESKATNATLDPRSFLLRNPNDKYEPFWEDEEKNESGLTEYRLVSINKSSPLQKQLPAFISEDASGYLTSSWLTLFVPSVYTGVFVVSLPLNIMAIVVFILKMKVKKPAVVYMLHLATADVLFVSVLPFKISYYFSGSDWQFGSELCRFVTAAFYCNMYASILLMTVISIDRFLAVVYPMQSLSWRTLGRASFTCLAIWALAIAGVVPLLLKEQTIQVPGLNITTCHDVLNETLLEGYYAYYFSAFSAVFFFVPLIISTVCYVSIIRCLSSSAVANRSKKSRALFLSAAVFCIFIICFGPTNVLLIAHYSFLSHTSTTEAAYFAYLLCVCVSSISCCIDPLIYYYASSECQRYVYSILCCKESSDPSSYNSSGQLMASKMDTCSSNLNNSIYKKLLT

[4] = organism: Homo sapiens; experiment: In vitro inhibition of human platelet aggregation induced by 3 ug/ml collagen.; assay type: functional
[5] = organism: Homo sapiens; experiment: In vitro inhibition of human platelet aggregation induced by thromboxane mimetic U-46,619 (at a concentration of 0.3 uM); assay type: functional
[6] = organism: Homo sapiens; experiment: In vitro inhibition of human platelet aggregation induced by SFLLRN-NH2 (at a concentration of 2 uM); IA means Inactive at 50 uM; assay type: functional
[7] = organism: Homo sapiens; experiment: In vitro inhibition of human platelet aggregation induced by collagen (at a concentration of 3 ug/mL); In active at 50 uM concentration; assay type: functional
[8] = organism: Homo sapiens; experiment: In vitro inhibition of human platelet aggregation induced by thromboxane mimetic U-46,619 (at a concentration of 0.3 uM concentration; assay type: functional

IC50 [1] | IC50 [2] | IC50 [3] [µM] | IC50 [4] [µM] | IC50 [5] [µM] | IC50 [6] | IC50 [7] | IC50 [8] | Structure (SMILES)
Not Active | Not Active | 1.8 | – | – | – | – | – | NC(=O)CCC(NC(=O)[C@H](Cc1ccc(F)c(F)c1)NC(=O)Nc1ccc2c(CN3CCCC3)cn(Cc3c(Cl)cccc3Cl)c2c1)C(=O)NCc1ccccc1 (some centres undefined)
– | – | 0.38 | 12 | 44.4 | – | – | – | COc1ccc(C[C@H](NC(=O)Nc2ccc3c(CN4CCCC4)cn(Cc4ccccc4Cl)c3c2)C(=O)N[C@@H](CCCN=C(N)N)C(=O)NCCCc2ccccc2)cc1
Not Active | – | 0.8 | 20.6 | – | – | – | – | Cc1ccccc1Cn1cc(CN2CCCC2)c2ccc(NC(=O)N[C@@H](Cc3ccc([N+](=O)[O-])cc3)C(=O)N[C@@H](CCCN=C(N)N)C(=O)NCc3ccccc3)cc21
Not Active | – | 1.3 | 34 | – | – | – | – | O=C(Nc1ccc2c(CN3CCCC3)cn(Cc3c(Cl)cccc3Cl)c2c1)N[C@@H](Cc1ccc(F)c(F)c1)C(=O)NC(Cc1c[nH]cn1)C(=O)NCc1ccccc1 (some centres undefined)
– | – | 5.6 | 33.1 | 43.5 | – | – | – | COc1ccc(C[C@H](NC(=O)Nc2ccc3c(CN4CCCCC4)cn(Cc4ccc(OC(F)(F)F)cc4)c3c2)C(=O)N[C@@H](CCCNC(=N)N)C(=O)NCC2CCCCC2)cc1
– | – | – | 26.1 | 26.2 | – | – | – | COc1ccc(C[C@H](NC(=O)Nc2ccc3c(CN4CCCCC4)cn(Cc4ccc(F)cc4)c3c2)C(=O)N[C@@H](CCCN=C(N)N)C(=O)NCC2CCCCC2)cc1
Not Active | – | 2.5 | 17 | – | – | – | – | CCN(CC)Cc1cn(Cc2ccccc2C)c2cc(NC(=O)N[C@@H](Cc3ccc(OC)cc3)C(=O)N[C@@H](CCCN=C(N)N)C(=O)NCCCc3ccccc3)ccc12
Not Active | – | 1.1 | 16.5 | – | – | – | – | N=C(N)NCCC[C@H](NC(=O)[C@H](Cc1ccc([N+](=O)[O-])cc1)NC(=O)Nc1ccc2c(CN3CCCC3)cn(Cc3ccc(F)cc3)c2c1)C(=O)NCc1ccccc1
Not Active | Not Active | – | – | – | – | – | – | COc1ccc(C[C@H](NC(=O)Nc2ccc3c(CN4CCC4)cn(Cc4ccc(F)cc4)c3c2)C(=O)N[C@@H](CCCN=C(N)N)C(=O)NCc2ccccc2)cc1
Not Active | Not Active | 11.2 | – | – | – | – | – | CSCCC(NC(=O)[C@H](Cc1ccc(F)c(F)c1)NC(=O)Nc1ccc2c(CN3CCCC3)cn(Cc3c(Cl)cccc3Cl)c2c1)C(=O)NCc1ccccc1 (some centres undefined)
Not Active | Not Active | 3.5 | – | – | Not Active | – | – | COC(=O)c1ccc(Cn2cc(CN3CCCC3)c3ccc(NC(=O)N[C@@H](Cc4ccc(OC)cc4)C(=O)N[C@@H](CCCN=C(N)N)C(=O)NCC4CCCCC4)cc32)cc1
Not Active | – | 0.92 | 36.9 | – | – | – | – | NCC(NC(=O)[C@H](Cc1ccc(F)c(F)c1)NC(=O)Nc1ccc2c(CN3CCCC3)cn(Cc3c(Cl)cccc3Cl)c2c1)C(=O)NCc1ccccc1 (some centres undefined)
Not Active | Not Active | 0.24 | – | – | – | – | – | NC(=O)NCCCC(NC(=O)[C@H](Cc1ccc(F)c(F)c1)NC(=O)Nc1ccc2c(CN3CCCC3)cn(Cc3c(Cl)cccc3Cl)c2c1)C(=O)NCc1ccccc1 (some centres undefined)
– | – | 1 | 11.9 | 44.2 | – | – | – | COc1ccc(C[C@H](NC(=O)Nc2ccc3c(CN4CCCC4)cn(Cc4ccccc4C)c3c2)C(=O)N[C@@H](CCCN=C(N)N)C(=O)NCCCc2ccccc2)cc1
– | – | 3.1 | 25.8 | 39.5 | – | – | – | CCN(CC)Cc1cn(Cc2ccc(F)cc2)c2cc(NC(=O)N[C@@H](Cc3ccc(OC)cc3)C(=O)N[C@@H](CCCN=C(N)N)C(=O)NCC3CCCCC3)ccc12
– | – | 0.3 | 21.3 | 41.9 | – | – | – | NCCCC[C@H](NC(=O)[C@H](Cc1ccc(F)c(F)c1)NC(=O)Nc1ccc2c(CN3CCCC3)cn(Cc3c(Cl)cccc3Cl)c2c1)C(=O)NCc1ccccc1
Not Active | – | 0.73 | 13 | – | – | – | – | COc1ccc(C[C@H](NC(=O)Nc2ccc3c(CN4CCCCC4)cn(Cc4ccccc4C)c3c2)C(=O)N[C@@H](CCCN=C(N)N)C(=O)NCCCc2ccccc2)cc1
Not Active | Not Active | – | – | – | – | – | – | N#Cc1ccc(C[C@H](NC(=O)Nc2ccc3c(CN4CCCC4)cn(Cc4c(Cl)cccc4Cl)c3c2)C(=O)N[C@@H](CCCNC(=N)N)C(=O)NCc2ccccc2)cc1
– | – | 3.2 | 27.5 | 36.3 | – | – | – | COc1ccc(C[C@H](NC(=O)Nc2ccc3c(CN4CCCCC4)cn(Cc4cccc(C)c4)c3c2)C(=O)N[C@@H](CCCNC(=N)N)C(=O)NCC2CCCCC2)cc1
– | – | 0.44 | – | – | – | Not Active | Not Active | NCCC(NC(=O)[C@H](Cc1ccc(F)c(F)c1)NC(=O)Nc1ccc2c(CN3CCCC3)cn(Cc3c(Cl)cccc3Cl)c2c1)C(=O)NCc1ccccc1 (some centres undefined)
– | – | – | 16.1 | 21.4 | – | – | – | COc1ccc(C[C@H](NC(=O)Nc2ccc3c(CN4CCCC4)cn(Cc4ccc(F)cc4)c3c2)C(=O)N[C@@H](CCCN=C(N)N)C(=O)NCCCc2ccccc2)cc1
Not Active | – | 6.4 | 25.9 | – | – | – | – | Cc1ccccc1Cn1cc(CN2CCCC2)c2ccc(NC(=O)N[C@@H](Cc3ccc(C#N)cc3)C(=O)N[C@@H](CCCN=C(N)N)C(=O)NCc3ccccc3)cc21
Not Active | Not Active | 2.2 | – | – | – | – | – | COc1ccc(C[C@H](NC(=O)Nc2ccc3c(CN4CCCC4)cn(Cc4ccc(F)cc4)c3c2)C(=O)N[C@@H](CCCN=C(N)N)C(=O)NCc2ccccc2)cc1
– | – | 2.6 | 37.6 | 12.5 | – | – | – | COc1ccc(C[C@H](NC(=O)Nc2ccc3c(CN4CCCC4)cn(Cc4ccc(F)cc4)c3c2)C(=O)N[C@@H](CCCN=C(N)N)C(=O)NCC2CCCCC2)cc1
Not Active | – | 2.6 | 10.2 | – | – | – | – | CCN(CC)Cc1cn(Cc2cccc(C)c2)c2cc(NC(=O)N[C@@H](Cc3ccc(OC)cc3)C(=O)N[C@@H](CCCN=C(N)N)C(=O)NCCCc3ccccc3)ccc12
Not Active | – | 0.5 | 15.7 | – | – | – | – | NCCC[C@H](NC(=O)[C@H](Cc1ccc(F)c(F)c1)NC(=O)Nc1ccc2c(CN3CCCC3)cn(Cc3c(Cl)cccc3Cl)c2c1)C(=O)NCc1ccccc1
– | – | 2.5 | 40.4 | 33 | – | – | – | COc1ccc(C[C@H](NC(=O)Nc2ccc3c(CN4CCCC4)cn(Cc4ccc(OC(F)(F)F)cc4)c3c2)C(=O)N[C@@H](CCCNC(=N)N)C(=O)NCC2CCCCC2)cc1

Structure (SMILES) | IC50 [1] | IC50 [2] | IC50 [3] [µM] | IC50 [4] [µM] | IC50 [5] [µM] | IC50 [6] | IC50 [7] | IC50 [8]
N=C(N)NCCC[C@H](NC(=O)[C@H](Cc1ccc(F)c(F)c1)NC(=O)Nc1ccc2c(CN3CCCC3)cn(Cc3c(Cl)cccc3Cl)c2c1)C(=O)NCc1ccccc1 | Not Active | Not Active | 0.82 | – | – | – | – | –
COc1ccc(C[C@H](NC(=O)Nc2ccc3c(CN4CCCC4)cn(Cc4c(Cl)cccc4Cl)c3c2)C(=O)N[C@@H](CCCNC(=N)N)C(=O)NCc2ccccc2)cc1 [RWJ-54003] | Not Active | – | 1.3 | 46.3 | – | – | – | –
